According to ChEMBL document CHEMBL1138126, “Tyrosine kinase inhibitors. 19. 6-Alkynamides of 4-anilinoquinazolines and 4-anilinopyrido[3,4-d]pyrimidines as irreversible inhibitors of the erbB family of tyrosine kinase receptors” (J Med Chem, 2006):
Each block holds one compound with its values, some of them ahead of it. The source made the active and inactive calls. The calls are words filed in the database; no cut-off is given here.

Columns and labels:
[1] = biological target: T1, Receptor tyrosine-protein kinase erbB-2 (Homo sapiens, UniProt P04626)
T1 sequence (P04626 whole entry): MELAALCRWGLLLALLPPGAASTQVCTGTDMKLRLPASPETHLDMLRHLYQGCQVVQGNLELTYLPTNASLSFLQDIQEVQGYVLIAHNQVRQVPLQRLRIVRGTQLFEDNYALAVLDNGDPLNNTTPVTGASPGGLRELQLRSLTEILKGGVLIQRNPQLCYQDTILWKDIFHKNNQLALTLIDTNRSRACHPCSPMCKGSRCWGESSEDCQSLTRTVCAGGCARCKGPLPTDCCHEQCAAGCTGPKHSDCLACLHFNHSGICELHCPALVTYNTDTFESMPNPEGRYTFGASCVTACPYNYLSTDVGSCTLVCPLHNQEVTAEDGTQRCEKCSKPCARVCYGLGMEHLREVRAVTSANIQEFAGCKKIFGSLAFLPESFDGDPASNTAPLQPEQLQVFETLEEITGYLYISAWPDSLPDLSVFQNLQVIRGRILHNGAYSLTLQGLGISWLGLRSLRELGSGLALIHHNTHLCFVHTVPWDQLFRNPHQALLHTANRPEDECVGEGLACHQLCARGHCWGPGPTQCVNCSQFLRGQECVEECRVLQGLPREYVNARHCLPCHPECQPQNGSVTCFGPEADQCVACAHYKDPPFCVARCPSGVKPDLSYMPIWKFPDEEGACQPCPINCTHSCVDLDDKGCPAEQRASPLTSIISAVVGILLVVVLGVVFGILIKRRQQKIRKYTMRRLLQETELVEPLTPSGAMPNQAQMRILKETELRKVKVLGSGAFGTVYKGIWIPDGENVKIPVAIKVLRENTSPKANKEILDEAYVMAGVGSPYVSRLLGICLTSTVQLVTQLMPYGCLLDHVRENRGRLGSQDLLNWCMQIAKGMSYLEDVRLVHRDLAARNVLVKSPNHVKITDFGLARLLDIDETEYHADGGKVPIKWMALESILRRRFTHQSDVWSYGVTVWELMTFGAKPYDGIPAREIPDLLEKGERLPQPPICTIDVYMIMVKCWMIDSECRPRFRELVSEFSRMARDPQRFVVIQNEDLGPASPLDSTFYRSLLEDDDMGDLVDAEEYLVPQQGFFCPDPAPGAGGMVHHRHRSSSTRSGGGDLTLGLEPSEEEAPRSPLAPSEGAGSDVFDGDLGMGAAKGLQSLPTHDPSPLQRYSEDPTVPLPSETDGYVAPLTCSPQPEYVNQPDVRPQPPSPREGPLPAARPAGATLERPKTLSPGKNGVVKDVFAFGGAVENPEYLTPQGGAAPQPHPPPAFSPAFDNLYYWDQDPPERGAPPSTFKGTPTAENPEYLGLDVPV
Description: Inhibition of erbB2 fusion protein expressed in baculovirus by ELISA

[2] = biological target: Receptor tyrosine-protein kinase erbB-4 (Homo sapiens, UniProt Q15303)
Receptor tyrosine-protein kinase erbB-4, sequence (Q15303 whole entry): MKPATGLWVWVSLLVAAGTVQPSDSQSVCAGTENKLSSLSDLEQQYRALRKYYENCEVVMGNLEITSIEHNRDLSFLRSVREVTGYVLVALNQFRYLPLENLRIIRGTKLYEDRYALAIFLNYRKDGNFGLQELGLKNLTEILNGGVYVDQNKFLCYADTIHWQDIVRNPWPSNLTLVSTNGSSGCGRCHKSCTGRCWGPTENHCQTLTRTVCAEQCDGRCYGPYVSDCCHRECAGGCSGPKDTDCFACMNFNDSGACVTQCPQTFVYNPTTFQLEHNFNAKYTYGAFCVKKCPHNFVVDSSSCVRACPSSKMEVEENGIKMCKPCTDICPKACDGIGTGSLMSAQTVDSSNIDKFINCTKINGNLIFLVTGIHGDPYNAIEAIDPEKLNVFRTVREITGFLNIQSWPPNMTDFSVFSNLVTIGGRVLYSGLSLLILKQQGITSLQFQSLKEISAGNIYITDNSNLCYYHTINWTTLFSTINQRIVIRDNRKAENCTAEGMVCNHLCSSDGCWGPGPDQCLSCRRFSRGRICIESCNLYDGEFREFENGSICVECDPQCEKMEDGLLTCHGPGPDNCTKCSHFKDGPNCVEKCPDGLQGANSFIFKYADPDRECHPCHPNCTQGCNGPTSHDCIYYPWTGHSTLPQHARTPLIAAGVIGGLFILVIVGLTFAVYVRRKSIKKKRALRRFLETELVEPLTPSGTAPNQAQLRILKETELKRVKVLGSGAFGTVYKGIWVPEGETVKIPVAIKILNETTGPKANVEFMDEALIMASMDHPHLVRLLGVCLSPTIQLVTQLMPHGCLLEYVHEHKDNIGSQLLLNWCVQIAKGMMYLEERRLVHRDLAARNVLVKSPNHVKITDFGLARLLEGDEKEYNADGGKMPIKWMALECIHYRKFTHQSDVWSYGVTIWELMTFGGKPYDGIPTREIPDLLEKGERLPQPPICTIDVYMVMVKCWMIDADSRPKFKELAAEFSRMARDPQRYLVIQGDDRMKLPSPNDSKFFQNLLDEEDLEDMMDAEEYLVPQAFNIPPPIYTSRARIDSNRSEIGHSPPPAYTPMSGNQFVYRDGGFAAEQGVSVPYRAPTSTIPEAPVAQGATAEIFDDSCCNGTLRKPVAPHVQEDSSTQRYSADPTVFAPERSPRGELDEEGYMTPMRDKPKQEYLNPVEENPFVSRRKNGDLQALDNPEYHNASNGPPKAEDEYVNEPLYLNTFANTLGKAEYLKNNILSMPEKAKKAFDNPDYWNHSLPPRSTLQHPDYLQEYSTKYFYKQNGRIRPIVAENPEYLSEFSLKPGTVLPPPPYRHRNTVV
Description: Inhibition of erbB4 fusion protein expressed in baculovirus by ELISA

[3] = biological target: T1, Receptor tyrosine-protein kinase erbB-2; remark: listed apart in the source
Description: Inhibition of HER stimulated human erbB autophosphorylation in MDA-MB-453 cells

[4] = biological target: T2, Epidermal growth factor receptor (Homo sapiens, UniProt P00533); test: Inhibition of EGF stimulated human erbB1 autophosphorylation in NIH3T3 cells
T2 sequence (P00533 whole entry, the tested form may be a part): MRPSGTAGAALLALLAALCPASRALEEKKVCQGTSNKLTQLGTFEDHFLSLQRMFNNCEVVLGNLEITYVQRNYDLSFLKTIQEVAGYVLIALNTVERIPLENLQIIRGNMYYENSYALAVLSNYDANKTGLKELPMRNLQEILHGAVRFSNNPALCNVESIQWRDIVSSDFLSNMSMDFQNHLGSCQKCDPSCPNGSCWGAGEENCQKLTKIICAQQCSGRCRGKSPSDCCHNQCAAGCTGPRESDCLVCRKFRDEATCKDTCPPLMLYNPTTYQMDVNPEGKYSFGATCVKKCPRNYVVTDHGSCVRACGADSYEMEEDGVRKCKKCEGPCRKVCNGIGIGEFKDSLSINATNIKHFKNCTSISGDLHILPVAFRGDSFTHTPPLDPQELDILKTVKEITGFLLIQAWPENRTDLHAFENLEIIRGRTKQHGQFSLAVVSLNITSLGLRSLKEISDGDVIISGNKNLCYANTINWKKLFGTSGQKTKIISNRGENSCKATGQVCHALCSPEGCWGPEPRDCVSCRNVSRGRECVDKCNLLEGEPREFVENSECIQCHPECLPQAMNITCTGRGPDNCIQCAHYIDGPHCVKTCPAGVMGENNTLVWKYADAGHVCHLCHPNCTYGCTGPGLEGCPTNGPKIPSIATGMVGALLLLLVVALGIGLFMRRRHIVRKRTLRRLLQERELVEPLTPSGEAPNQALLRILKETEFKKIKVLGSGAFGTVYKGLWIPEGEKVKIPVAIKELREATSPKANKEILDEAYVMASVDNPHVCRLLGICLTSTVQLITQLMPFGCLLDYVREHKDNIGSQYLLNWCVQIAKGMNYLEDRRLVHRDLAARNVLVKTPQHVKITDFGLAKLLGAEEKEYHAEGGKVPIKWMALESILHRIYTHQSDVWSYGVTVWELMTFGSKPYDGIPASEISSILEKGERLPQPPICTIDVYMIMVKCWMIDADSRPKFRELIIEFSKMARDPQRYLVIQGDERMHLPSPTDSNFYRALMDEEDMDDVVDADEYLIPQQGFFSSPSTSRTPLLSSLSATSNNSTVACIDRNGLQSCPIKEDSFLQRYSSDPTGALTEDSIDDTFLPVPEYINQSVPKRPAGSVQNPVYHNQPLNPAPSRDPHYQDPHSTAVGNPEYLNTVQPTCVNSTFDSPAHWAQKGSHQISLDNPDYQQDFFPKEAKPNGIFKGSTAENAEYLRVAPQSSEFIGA

[5] = biological target: T2, Epidermal growth factor receptor; test: Inhibition of erbB1 fusion protein expressed in baculovirus by ELISA
[6] = AUC(0-tz) in rat at 5 mg/kg, iv; type: ADME, organism-based; set-up: dose 5 mg/kg, route intravenous; settings: plasma
[7] = biological target: Platelet-derived growth factor receptor (Homo sapiens, UniProt P09619+P16234); test: Inhibition of PDGF receptor; type: protein-complex assay
[8] = Cmax in monkey at 30 mg/kg, po; type: ADME, organism-based, Macaca mulatta; set-up: dose 30 mg/kg, route oral; settings: rhesus monkey, in vivo
[9] = Plasma clearance in monkey at 5 mg/kg, iv; type: ADME, organism-based, Macaca mulatta; set-up: dose 5 mg/kg, route intravenous; settings: rhesus monkey
[10] = Tmax in monkey at 30 mg/kg, po; type: ADME, organism-based, Macaca mulatta; set-up: dose 30 mg/kg, route oral; settings: rhesus monkey, in vivo
Mus musculus [11] = test: Antitumor activity in NCr nu/nu mice implanted with A431 xenografts at 10 mg/kg, po; type: functional, organism-based; set-up: dose 10 mg/kg
[12] = AUC(0-tz) in dog at 5 mg/kg, iv; type: ADME, organism-based, Canis lupus familiaris; set-up: dose 5 mg/kg, route intravenous; settings: plasma
[13] = AUC(0-tz) in monkey at 30 mg/kg, po; type: ADME, organism-based, Macaca mulatta; set-up: dose 30 mg/kg, route oral; settings: rhesus monkey, plasma
[14] = AUC(0-tz) in rat at 15 mg/kg, po; type: ADME, organism-based; set-up: dose 15 mg/kg, route oral; settings: plasma
[15] = Tmax in rat at 15 mg/kg, po; type: ADME, organism-based; set-up: dose 15 mg/kg, route oral; settings: in vivo
[16] = Cmax in rat at 15 mg/kg, po; type: ADME, organism-based; set-up: dose 15 mg/kg, route oral; settings: in vivo
[17] = Oral bioavailability in dog at 15 mg/kg; type: ADME, organism-based, Canis lupus familiaris; settings: in vivo
[18] = Plasma clearance in rat at 5 mg/kg, iv; type: ADME, organism-based; set-up: dose 5 mg/kg, route intravenous
[19] = Cmax in dog at 15 mg/kg, po; type: ADME, organism-based, Canis lupus familiaris; set-up: dose 15 mg/kg, route oral; settings: in vivo
Mus musculus [20] = test: Antitumor activity in SCID mice implanted with SF 767 xenografts at 40 mg/kg, po; type: functional, organism-based; set-up: dose 40 mg/kg; settings: CB17
[21] = Oral bioavailability in rat at 15 mg/kg; type: ADME, organism-based; settings: in vivo
Mus musculus [22] = test: Antitumor activity in NCr nu/nu mice implanted with H125 NSC xenografts at 40 mg/kg, po; type: functional, organism-based; set-up: dose 40 mg/kg
[23] = AUC(0-tz) in monkey at 5 mg/kg, iv; type: ADME, organism-based, Macaca mulatta; set-up: dose 5 mg/kg, route intravenous; settings: rhesus monkey, plasma
[24] = biological target: Fibroblast growth factor receptor (Homo sapiens, UniProt P22607+P11362+P22455+P21802); test: Inhibition of FGFR; type: protein assay
[25] = Half life in rat at 5 mg/kg, iv; type: ADME, organism-based; set-up: dose 5 mg/kg, route intravenous; settings: in vivo
[26] = Volume of distribution in monkey at 5 mg/kg, iv; type: ADME, organism-based, Macaca mulatta; set-up: dose 5 mg/kg, route intravenous; settings: rhesus monkey, in vivo, read-out: Vdss
[27] = Half life in monkey at 5 mg/kg, iv; type: ADME, organism-based, Macaca mulatta; set-up: dose 5 mg/kg, route intravenous; settings: rhesus monkey, in vivo
[28] = Plasma clearance in dog at 5 mg/kg, iv; type: ADME, organism-based, Canis lupus familiaris; set-up: dose 5 mg/kg, route intravenous
Mus musculus [29] = test: Antitumor activity in NCr nu/nu mice implanted with SKOV3 xenografts at 40 mg/kg, po; type: functional, organism-based; set-up: dose 40 mg/kg
[30] = Tmax in dog at 15 mg/kg, po; type: ADME, organism-based, Canis lupus familiaris; set-up: dose 15 mg/kg, route oral; settings: in vivo
[31] = Volume of distribution in rat at 5 mg/kg, iv; type: ADME, organism-based; set-up: dose 5 mg/kg, route intravenous; settings: in vivo, read-out: Vdss
[32] = Oral bioavailability in monkey at 30 mg/kg; type: ADME, organism-based, Macaca mulatta; settings: rhesus monkey, in vivo
[33] = biological target: T1, Receptor tyrosine-protein kinase erbB-2; remark: listed apart in the source
Description: Inhibition of ligand stimulated erbB2 autophosphorylation in T24 NIH cells

[34] = Half life in dog at 5 mg/kg, iv; type: ADME, organism-based, Canis lupus familiaris; set-up: dose 5 mg/kg, route intravenous; settings: in vivo
Mus musculus [35] = test: Antitumor activity in SCID mice implanted with BXPC3 xenografts at 40 mg/kg, po; type: functional, organism-based; set-up: dose 40 mg/kg; settings: CB17
Insulin receptor = Insulin receptor (Homo sapiens, UniProt P06213); test: Inhibition of insulin receptor
Insulin receptor, sequence (P06213 28-758 limits assumed): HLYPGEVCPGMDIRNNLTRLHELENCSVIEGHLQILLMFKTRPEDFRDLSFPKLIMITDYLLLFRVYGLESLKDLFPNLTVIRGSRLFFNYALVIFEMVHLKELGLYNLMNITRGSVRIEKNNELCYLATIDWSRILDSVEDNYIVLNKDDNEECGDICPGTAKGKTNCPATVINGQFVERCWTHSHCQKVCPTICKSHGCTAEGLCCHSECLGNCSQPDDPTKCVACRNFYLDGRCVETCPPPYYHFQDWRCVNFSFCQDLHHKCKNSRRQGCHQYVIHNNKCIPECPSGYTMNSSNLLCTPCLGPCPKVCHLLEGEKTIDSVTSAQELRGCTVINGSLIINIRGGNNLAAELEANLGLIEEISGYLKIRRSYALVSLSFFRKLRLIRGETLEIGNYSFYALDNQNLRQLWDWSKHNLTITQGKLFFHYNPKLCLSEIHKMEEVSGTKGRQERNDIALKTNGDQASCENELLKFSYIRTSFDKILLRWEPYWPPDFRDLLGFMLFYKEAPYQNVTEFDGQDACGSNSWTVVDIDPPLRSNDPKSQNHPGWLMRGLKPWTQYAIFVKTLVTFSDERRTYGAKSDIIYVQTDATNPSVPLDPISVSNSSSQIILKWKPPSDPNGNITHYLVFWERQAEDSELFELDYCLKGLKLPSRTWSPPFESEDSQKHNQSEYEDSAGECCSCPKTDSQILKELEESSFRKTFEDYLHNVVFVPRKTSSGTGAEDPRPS
Insulin receptor, sequence (P06213 763-1382 limits assumed): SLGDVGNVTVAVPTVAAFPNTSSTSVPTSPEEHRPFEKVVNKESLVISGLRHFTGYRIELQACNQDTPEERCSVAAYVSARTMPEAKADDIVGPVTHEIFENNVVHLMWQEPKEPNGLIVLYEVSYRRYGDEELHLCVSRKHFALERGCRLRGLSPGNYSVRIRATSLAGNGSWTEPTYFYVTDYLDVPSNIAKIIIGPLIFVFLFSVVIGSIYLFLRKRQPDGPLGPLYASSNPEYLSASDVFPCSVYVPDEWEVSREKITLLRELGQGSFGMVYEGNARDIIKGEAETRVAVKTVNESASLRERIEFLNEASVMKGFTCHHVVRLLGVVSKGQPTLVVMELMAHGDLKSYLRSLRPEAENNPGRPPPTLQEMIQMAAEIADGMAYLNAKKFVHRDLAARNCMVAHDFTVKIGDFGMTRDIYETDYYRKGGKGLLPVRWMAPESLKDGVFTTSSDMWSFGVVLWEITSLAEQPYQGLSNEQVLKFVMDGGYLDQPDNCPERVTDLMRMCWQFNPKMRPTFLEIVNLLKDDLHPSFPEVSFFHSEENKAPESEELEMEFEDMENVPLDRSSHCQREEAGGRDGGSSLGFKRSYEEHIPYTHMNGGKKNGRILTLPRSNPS

[36] = AUC(0-tz) in dog at 15 mg/kg, po; type: ADME, organism-based, Canis lupus familiaris; set-up: dose 15 mg/kg, route oral; settings: plasma
[37] = Volume of distribution in dog at 5 mg/kg, iv; type: ADME, organism-based, Canis lupus familiaris; set-up: dose 5 mg/kg, route intravenous; settings: in vivo, read-out: Vdss

Compound: CC(C)N(CC#CC(=O)Nc1ccc2ncnc(Nc3ccc(F)c(Cl)c3)c2c1)C(C)C
IC50 [1]: 2.8 nM
IC50 [3]: 65 nM

Compound: C#CC(=O)Nc1cc2c(Nc3cccc(Br)c3)ncnc2cn1
IC50 [1]: 2.4 nM
IC50 [2]: 13 nM
IC50 [4]: 15 nM
IC50 [5]: 0.6 nM

Compound: O=C(C#CCO)Nc1ccc2ncnc(Nc3ccc(F)c(Cl)c3)c2c1
IC50 [1]: 2.1 nM
IC50 [2]: 7.3 nM
IC50 [3]: 43 nM
IC50 [4]: 25 nM
IC50 [5]: 1.4 nM

Compound: CCCCN(CC#CC(=O)Nc1ccc2ncnc(Nc3ccc(F)c(Cl)c3)c2c1)CCCC
IC50 [1]: 464 nM
IC50 [2]: 624 nM
IC50 [3]: 32 nM
IC50 [4]: 11 nM
IC50 [5]: 40 nM

Compound: CCN(CC)CC#CC(=O)Nc1ccc2ncnc(Nc3ccc(F)c(Cl)c3)c2c1
IC50 [1]: 46 nM
IC50 [2]: 310 nM
IC50 [3]: 7.5 nM
IC50 [4]: 6.8 nM
IC50 [5]: 3.1 nM

Compound: C#CC(=O)Nc1ccc2ncnc(Nc3cccc(Br)c3)c2c1
IC50 [1]: 1.9 nM
IC50 [2]: 1.7 nM

Compound: CCN(CC)CC#CC(=O)Nc1cc2c(Nc3ccc(F)c(Cl)c3)ncnc2cn1
IC50 [1]: 597 nM
IC50 [2]: 644 nM
IC50 [3]: 116 nM
IC50 [4]: 48 nM
IC50 [5]: 15 nM

Compound: O=C(C#CCN1CCOCC1)Nc1ccc2ncnc(Nc3ccc(F)c(Cl)c3)c2c1
IC50 [1]: 300 nM
IC50 [2]: 229 nM
IC50 [3]: 173 nM
IC50 [4]: 31 nM
IC50 [5]: 86 nM

Compound: CCCCN(CC#CC(=O)Nc1cc2c(Nc3ccc(F)c(Cl)c3)ncnc2cn1)CCCC
IC50 [1]: 67 nM
IC50 [2]: 73 nM
IC50 [3]: 320 nM
IC50 [4]: 49 nM
IC50 [5]: 17 nM

Compound: CC(C)N(CC#CC(=O)Nc1cc2c(Nc3ccc(F)c(Cl)c3)ncnc2cn1)C(C)C
IC50 [1]: > 1000 nM
IC50 [2]: 538 nM
IC50 [3]: 36 nM
IC50 [4]: 73 nM
IC50 [5]: 44 nM

Compound: O=C(C#CCCN1CCOCC1)Nc1ccc2ncnc(Nc3ccc(F)c(Cl)c3)c2c1
IC50 [1]: 2.3 nM
IC50 [2]: 4.3 nM
IC50 [3]: 7.6 nM
IC50 [4]: 12 nM
IC50 [5]: 1.7 nM

Compound: CCN(CC)CCC#CC(=O)Nc1ccc2ncnc(Nc3ccc(F)c(Cl)c3)c2c1
IC50 [1]: 2.6 nM
IC50 [2]: 16 nM
IC50 [3]: 23 nM
IC50 [4]: 4.5 nM
IC50 [5]: 1.8 nM

Compound: CC#CC(=O)Nc1ccc2ncnc(Nc3cccc(Br)c3)c2c1
IC50 [1]: 17 nM
IC50 [2]: 12 nM

The next lines start with results.

IC50 [1]: 0.7 nM
IC50 [2]: 1 nM
IC50 [3]: 0.5 nM
IC50 [4]: 4.5 nM
IC50 [5]: 1.5 nM
Compound: O=C(C#CCCN1CCOCC1)Nc1cc2c(Nc3ccc(F)c(Br)c3)ncnc2cn1

IC50 [1]: 1.1 nM
IC50 [2]: 0.5 nM
IC50 [3]: 24 nM
Compound: CC#CC(=O)Nc1cc2c(Nc3ccc(F)c(Cl)c3)ncnc2cn1

IC50 [1]: 0.5 nM
IC50 [2]: 0.8 nM
IC50 [3]: 3.5 nM
IC50 [4]: 2.7 nM
IC50 [5]: 1.1 nM
Compound: CN1CCN(CCC#CC(=O)Nc2cc3c(Nc4ccc(F)c(Br)c4)ncnc3cn2)CC1

IC50 [1]: 0.8 nM
IC50 [2]: 1 nM
IC50 [3]: 5 nM
IC50 [4]: 1.8 nM
IC50 [5]: 1.3 nM
Compound: O=C(C#CCCN1CCOCC1)Nc1cc2c(Nc3ccc(F)c(Cl)c3)ncnc2cn1

IC50 [1]: 3.8 nM
IC50 [2]: 2.4 nM
IC50 [3]: 170 nM
IC50 [4]: 9.6 nM
IC50 [5]: 1.7 nM
Compound: CCCC#CC(=O)Nc1cc2c(Nc3ccc(F)c(Cl)c3)ncnc2cn1

IC50 [1]: 26 nM
IC50 [2]: 6.2 nM
IC50 [3]: 22 nM
IC50 [4]: 14 nM
IC50 [5]: 3.1 nM
Compound: O=C(C#CCN1CCOCC1)Nc1cc2c(Nc3ccc(F)c(Cl)c3)ncnc2cn1

IC50 [1]: 0.7 nM
AUC [6]: 703 ng·h/mL
IC50 [7]: > 50000 nM
Cmax [8]: 83.5 ng/mL
clearance [9]: 85.8 mL/min/kg
IC50 [2]: 1.2 nM
IC50 [3]: 1 nM
Tmax [10]: 3.5 h
AUC [12]: 7470 ng·h/mL
AUC [13]: 485 ng·h/mL
AUC [14]: 240 ng·h/mL
Tmax [15]: 4.7 h
Cmax [16]: 56.3 ng/mL
bioavailability [17]: 67.8%
clearance [18]: 119 mL/min/kg
Cmax [19]: 4180 ng/mL
bioavailability [21]: 11.4%
AUC [23]: 1190 ng·h/mL
IC50 [24]: > 50000 nM
half-life [25]: 0.83 h
Vd [26]: 1.7 L/kg
half-life [27]: 0.37 h
clearance [28]: 11.5 mL/min/kg
Tmax [30]: 1 h
Vd [31]: 3.1 L/kg
bioavailability [32]: 6.75%
IC50 [33]: 0.8 nM
half-life [34]: 1.86 h
IC50 (Insulin receptor): > 50000 nM
AUC [36]: 15200 ng·h/mL
Vd [37]: 0.93 L/kg
Compound: CN1CCN(CCC#CC(=O)Nc2cc3c(Nc4ccc(F)c(Cl)c4)ncnc3cn2)CC1
Activity (Mus musculus [11]): Active
Activity (Mus musculus [20]): Active
Activity (Mus musculus [22]): Active
Activity (Mus musculus [29]): Active
Activity (Mus musculus [35]): Active

IC50 [1]: 5.4 nM
IC50 [2]: 7.1 nM
IC50 [3]: 20 nM
IC50 [4]: 4.5 nM
IC50 [5]: 15 nM
Compound: CCCCC#CC(=O)Nc1cc2c(Nc3ccc(F)c(Cl)c3)ncnc2cn1

IC50 [1]: 2.1 nM
IC50 [2]: 1.8 nM
IC50 [3]: 2 nM
IC50 [4]: 4.3 nM
IC50 [5]: 0.9 nM
Compound: O=C(C#CCCN1CCCCC1)Nc1cc2c(Nc3ccc(F)c(Cl)c3)ncnc2cn1
